Source: patent US12606541B2, “PPARg modulators and methods of use” (Eisai R&D Management Co., Ltd., priority 2020, dated 2026)
Like-named read-outs stand apart in the source and are kept apart here.

How the values were obtained:
His6-TEV-PPARγ-(234-505) = biological target: T1, His6-TEV-PPARγ-(234-505) (Homo sapiens, UniProt P37231); experiment: TR-FRET Assay to Measure Co-R Peptide Recruitment to PPARγ; format: biochemical
T1 construct: The His6-TEV-PPARγ-(234-505) protein for assay was expressed and purified; TEV cleavage site (N); made in house
T1 sequence (P37231 234-505): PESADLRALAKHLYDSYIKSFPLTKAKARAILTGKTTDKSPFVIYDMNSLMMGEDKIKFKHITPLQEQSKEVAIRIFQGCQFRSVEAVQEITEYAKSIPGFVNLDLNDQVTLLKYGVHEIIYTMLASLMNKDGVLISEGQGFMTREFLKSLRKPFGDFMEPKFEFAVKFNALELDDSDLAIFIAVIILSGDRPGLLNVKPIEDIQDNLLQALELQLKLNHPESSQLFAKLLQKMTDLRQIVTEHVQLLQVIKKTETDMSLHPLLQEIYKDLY
In short: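 His-tagged PPARγ (or controls) was preincubated with compound for 20 minutes at room temperature, then 5 nM anti-His terbium antibody and 200 nM FITC-labeled SMRT-ID2 corepressor peptide (final) were added for a further hour. TR-FRET signal was normalized to percent response using 500 nM T0070907 and DMSO controls.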

UM-UC-9 engineered cells = experiment: Cell proliferation / short-term viability assay, CellTiter-Glo 144 h; format: cell-based, human; conditions: read-out: CTGlo 144 h UMUC9.5, G150
Procedure: Cell Seeding for Proliferation Assay
UM-UC-9 engineered cells were cultured in Dulbecco's Modified Eagle Medium (DMEM) supplemented with 10% FBS, 25 mM glucose (high glucose), 4.0 mM L-glutamine, 2.0 mM GlutaMAX™, 1.0 mM pyruvate, 1.0% non-essential amino acids (NEAA) in a 95% humidified incubator at 37° C. with 5% CO2. Cell banks of UM-UC-9 engineered assay-ready cells (ARCs) were prepared from a very active growth stage. Vials of ARCs containing approximately 5×10^6 cells per vial were stored in liquid nitrogen vapor phase cryostorage until use.
For making assay plates, ARCs were recovered from cryostorage, strained in a […] cell strainer, verified for cell viability >90% and counted using a cell counter (Cellometer Auto 1000, Nexelom). Each cell line was seeded into 384-well plates (50 μl/well) using DMEM medium at a density previously determined to be in log growth phase 7 days post-seeding (500 cells/well) using a bulk reagent dispenser (Multidrop™ Combi, Thermo Scientific) with a large-bore plastic-tip cassette pre-sanitized with 70% ethanol. One plate of cells was designated as the pretreatment time-zero (T0) control. Freshly seeded plates were allowed to sit lidded for 30 minutes within a biosafety cabinet for cells to settle distributed within the plate wells uniformly and then placed into an automated incubator (STX110, Liconic) at 37° C., 5% CO2, and 95% relative humidity.
Preparation of Test Compound in Assay-Ready Plate
Compounds were stored in a low-temperature sample archive as 10 mM dimethyl sulfoxide (DMSO) solutions at −20° C. under reduced humidity (−45° C. dew point) and protected from light. All samples in the automated archive are stored in 2D barcoded polypropylene tubes, tracked through a laboratory information management system (LIMS), and have been verified for identity and purity by NMR (Chemistry, H3 Biomedicine) and by LCMS (Analytical Chemistry, H3 Biomedicine) at the time of sample registration. Identity by mass matching and purity are again verified at the time of sample request fulfillment by redundant LCMS methods (acidic and basic separation protocols; Analytical Chemistry, H3 Biomedicine). Samples retrieved from low-temperature archive storage were solubilized by heated sonication (Bransonic® Ultrasonic Bath, Branson), transferred (Microlab Starlet, Hamilton) and serially-diluted (Viaflo Assist, Integra) by low-volume liquid handlers, and tracked in LIMS by automation log files to create a ID barcoded master dose-response plate (MDR) to serve as a standard source for all assay-ready plates (ARP) used within an experiment. ARPs prepared by acoustic transfer (ATS-100, EDC) of nL volumes from the MDR source were heat-sealed (PlateLoc, Agilent) and stored at −20° C. prior to use (<7 days from production). Tracking of liquid transfers via acoustic dispenser log files were used to update the LIMS system for all ARP plate maps.
Measurement of Pretreatment Control Cells and Sample Anti-Proliferative Effects on Treated Cells
On day 0 (pretreatment cells) or day 7 (treated cells), a cell proliferation assay was performed using an automated robotic assay platform (ACell, High-Res Biosolutions). Cell ARP's were removed from incubation, their plate lid discarded, and using a bulk reagent dispenser (Multidrop™ Combi, Thermo Scientific with a small-bore metal-tip cassette) 25 μL (1/2 volume) of Cell Titer-Glo® 2.0 Cell Viability Assay reagent (Promega) was added to wells of columns 1-23 (column 24 will be used as plate background or positive control). Cell ARP's were incubated at room temperature in an automation hotel position for a total of 1.0 minute while the next plate was delivered to the bulk reagent dispenser and then lid-free cell ARP's were returned to incubate at 37° C. for 2.5 hours. […]

[1] = Co-R peptide (SMRT-ID2) recruitment, top final concentration 20 μM, read-out: TR-FRET i-Ag, AC50
[2] = Co-R peptide recruitment to PPARγ, read-out: TR-FRET AC50

| AC50 (His6-TEV-PPARγ-(234-505); [2]) [nM] | Compound | IC50 (UM-UC-9 engineered cells; Homo sapiens, UM-UC-9, 144 h) [nM] | also measured |
| --- | --- | --- | --- |
|  | COc1cc(-c2cc(C(=O)N3CCC(C(=O)NC4CCC(C)CC4)CC3)n[nH]2)c(Cl)cn1 (mixture of isomers) [Example 101, 1-(5-(5-chloro-2-methoxypyridin-4-yl)-1H-pyrazole-3-carbonyl)-N-((1s,4s)-4-methylcyclohexyl)piperidine-4-carboxamide and 1-(5-(5-chloro-2-methoxypyridin-4-yl)-1H-pyrazole-3-carbonyl)-N-((1r,4r)-4-methylcyclohexyl)piperidine-4-carboxamide] |  | AC50 (His6-TEV-PPARγ-(234-505); [1]): 29.4 nM; IC50 (UM-UC-9 engineered cells): 305 nM |
|  | COc1cc(-c2[nH]nc(C(=O)N3CCC(C(=O)NC4CCC(C)CC4)CC3)c2F)ccn1 (mixture of isomers) [Example 102] | 643 | AC50 (His6-TEV-PPARγ-(234-505); [1]): 321 nM |
|  | COc1cc(-c2cc(C(=O)N3CCC(C(=O)NC4CCC(C)CC4)CC3)n[nH]2)ccn1 (mixture of isomers) [Example 105, 1-(5-(2-methoxypyridin-4-yl)-1H-pyrazole-3-carbonyl)-N-(4-methylcyclohexyl)piperidine-4-carboxamide] | 1020 | AC50 (His6-TEV-PPARγ-(234-505); [1]): 537 nM |
|  | COc1cc(-c2[nH]nc(C(=O)N3CCC(C(=O)NC4CCC(C)CC4)CC3)c2Cl)ccn1 (mixture of isomers) [Example 110, 1-[4-chloro-5-(2-methoxypyridin-4-yl)-1H-pyrazole-3-carbonyl]-N-[(1s,4s)-4-methylcyclohexyl]piperidine-4-carboxamide and 1-[4-chloro-5-(2-methoxypyridin-4-yl)-1H-pyrazole-3-carbonyl]-N-[(1r,4r)-4-methylcyclohexyl]piperidine-4-carboxamide] |  | AC50 (His6-TEV-PPARγ-(234-505); [1]): 575 nM; IC50 (UM-UC-9 engineered cells): 1210 nM |
|  | COc1cc(-c2cc(C(=O)N3CCC(C(=O)NC4CCC(C)CC4)CC3)n[nH]2)c(F)cn1 (mixture of isomers) [Example 114, 1-(5-(5-fluoro-2-methoxypyridin-4-yl)-1H-pyrazole-3-carbonyl)-N-((1s,4s)-4-methylcyclohexyl)piperidine-4-carboxamide and 1-(5-(5-fluoro-2-methoxypyridin-4-yl)-1H-pyrazole-3-carbonyl)-N-((1r,4r)-4-methylcyclohexyl)piperidine-4-carboxamide] |  | AC50 (His6-TEV-PPARγ-(234-505); [1]): 78.5 nM; IC50 (UM-UC-9 engineered cells): 120 nM |
|  | COc1cc(-c2cc(C(=O)N3CCC(C(=O)NC4CCC(C(F)(F)F)CC4)CC3)n[nH]2)c(Cl)cn1 (mixture of isomers) [Example 118, 1-[5-(5-chloro-2-methoxypyridin-4-yl)-1H-pyrazole-3-carbonyl]-N-[(1s,4s)-4-(trifluoromethyl)cyclohexyl]piperidine-4-carboxamide and 1-[5-(5-chloro-2-methoxypyridin-4-yl)-1H-pyrazole-3-carbonyl]-N-[(1r,4r)-4-(trifluoromethyl)cyclohexyl]piperidine-4-carboxamide] |  | IC50 (UM-UC-9 engineered cells): 121 nM |
|  | COc1cc(-c2cc(C(=O)N3CCC(C(=O)NC(C)c4cccc(Cl)c4)CC3)n[nH]2)c(Cl)cn1 (racemic) [Example 115, (R)-1-[5-(5-chloro-2-methoxypyridin-4-yl)-1H-pyrazole-3-carbonyl]-N-[1-(3-chlorophenyl)ethyl]piperidine-4-carboxamide and (S)-1-[5-(5-chloro-2-methoxypyridin-4-yl)-1H-pyrazole-3-carbonyl]-N-[1-(3-chlorophenyl)ethyl]piperidine-4-carboxamide] |  | IC50 (UM-UC-9 engineered cells): 428 nM |
|  | COc1cc(-c2cc(C(=O)N3CCC(C(=O)NC4CCC(C)CC4)CC3)n[nH]2)c(Cl)cn1 (single isomer, unassigned) [Example 101-A] |  | IC50 (UM-UC-9 engineered cells; listed as 101a): > 10000 nM |
|  | COc1cc(-c2cc(C(=O)N3[C@@H]4CC[C@H]3C[C@H](C(=O)NC3CCC(C#N)(C(F)(F)F)CC3)C4)n[nH]2)c(F)cn1 (stereo partly drawn) [Example 438, (1R,3s,5S)—N-(4-cyano-4-(trifluoromethyl)cyclohexyl)-8-(5-(5-fluoro-2-methoxypyridin-4-yl)-1H-pyrazole-3-carbonyl)-8-azabicyclo[3.2.1]octane-3-carboxamide] | 1150 |  |
|  | COc1cc(-c2cc(C(=O)N3CC[C@H](C(=O)NCc4nc(C)cnc4Cl)CC34CC4)n[nH]2)c(F)cn1 [Example 451, (S)—N-((3-chloro-6-methylpyrazin-2-yl)methyl)-4-(5-(5-fluoro-2-methoxypyridin-4-yl)-1H-pyrazole-3-carbonyl)-4-azaspiro[2.5]octane-7-carboxamide] | 9.6 |  |
|  | COc1cc(-c2cc(C(=O)N3CC[C@H](C(=O)NCc4ncc(C#N)cn4)CC34CC4)n[nH]2)c(F)cn1 [Example 456, (S)—N-((5-cyanopyrimidin-2-yl)methyl)-4-(5-(5-fluoro-2-methoxypyridin-4-yl)-1H-pyrazole-3-carbonyl)-4-azaspiro[2.5]octane-7-carboxamide] | 312 |  |
|  | COc1cnc(CNC(=O)[C@H]2CCN(C(=O)c3cc(-c4cc(OC)ncc4F)[nH]n3)C3(CC3)C2)c(C(F)(F)F)c1 [Example 527, (S)-4-(5-(5-fluoro-2-methoxypyridin-4-yl)-1H-pyrazole-3-carbonyl)-N-((5-methoxy-3-(trifluoromethyl)pyridin-2-yl)methyl)-4-azaspiro[2.5]octane-7-carboxamide] | 5 |  |
| > 1000 | CN1CCC(N(C)C(=O)C2CCN(C(=O)c3cc(-c4ccncc4)[nH]n3)CC2)CC1 [N-methyl-N-(1-methylpiperidin-4-yl)-1-[5-(pyridin-4-yl)-1H-pyrazole-3-carbonyl]piperidine-4-carboxamide] |  |  |
| > 1000 | CC(C)CN(C)C(=O)C1CCN(C(=O)c2cc(-c3ccncc3)[nH]n2)CC1 [N-methyl-N-(2-methylpropyl)-1-[5-(pyridin-4-yl)-1H-pyrazole-3-carbonyl]piperidine-4-carboxamide] |  |  |
| > 1000 | CCCN(C)C(=O)C1CCN(C(=O)c2cc(-c3ccncc3)[nH]n2)CC1 [N-methyl-N-propyl-1-[5-(pyridin-4-yl)-1H-pyrazole-3-carbonyl]piperidine-4-carboxamide] |  |  |
| > 1000 | O=C(Nc1ccccc1)C1CCN(C(=O)c2cc(-c3ccncc3)[nH]n2)CC1 [N-phenyl-1-[5-(pyridin-4-yl)-1H-pyrazole-3-carbonyl]piperidine-4-carboxamide] |  |  |
| > 1000 | COc1cc(-c2cc(C(=O)N3CCC(C(=O)NC45CC(C4)C5)CC3)n[nH]2)c(Cl)cn1 [N-{bicyclo[1.1.1]pentan-1-yl}-1-[5-(5-chloro-2-methoxypyridin-4-yl)-1H-pyrazole-3-carbonyl]piperidine-4-carboxamide] |  |  |
| > 1000 | O=C(c1cc(-c2ccncc2)[nH]n1)N1CCC(C(=O)N2CCC[C@H]2CO)CC1 [[(2S)-1-{1-[5-(pyridin-4-yl)-1H-pyrazole-3-carbonyl]piperidine-4-carbonyl}pyrrolidin-2-yl]methanol] |  |  |

| Compound | AC50 (His6-TEV-PPARγ-(234-505); [2]) [nM] | IC50 (UM-UC-9 engineered cells; Homo sapiens, UM-UC-9, 144 h) [nM] | also measured |
| --- | --- | --- | --- |
| CC(C)(C)Oc1ccc(CNC(=O)C2CCN(C(=O)c3cc(-c4ccncc4)[nH]n3)CC2)cc1 [N-{[4-(tert-butoxy)phenyl]methyl}-1-[5-(pyridin-4-yl)-1H-pyrazole-3-carbonyl]piperidine-4-carboxamide] | > 1000 |  |  |
